# Measured values taken from patent publication US7468281B2, “Hollow fiber membrane sample preparation devices” (priority 2001, dated 2008).
# “And” between values parts separate entries of the source, which are not always exact repeats. Equal entries are not always repeated. Where two headings read alike, the source gives them in different places.
# Legend:
# [1] = LPME of drugs from human plasma, urine and whole blood with vial format device, CZE analysis; assay type: physicochemical
# [2] = LPME of seven basic drugs with different hollow fibres (polypropylene, polysulfone); assay type: physicochemical
# [3] = LPME of seven basic drugs from water with different acidic acceptor phases, CE analysis; assay type: physicochemical
# [4] = LPME of eight basic drugs from water with phosphate buffer acceptors of different pH, CE analysis; assay type: physicochemical
# [5] = LPME with different supported liquid membrane liquids, 96 well format device, HPLC analysis; details: 0.1 M hydrochloric acid acceptor, 30 min
# Excerpt: A mixture of acidic and basic drugs was used in this study, together with 0.1 M hydrochloric acid or 0.1 M sodium hydroxide as the acceptor phase.
# Four different membrane forming small molecular weight organic liquids were investigated for selectivity differences, viz. hexyl ether, 4-nitrophenyl octyl ether, 1-octanol and 2-octyl-1-dodecanol. […] A cover plate of a 96 well block, carrying polypropylene fiber of 8 cm length, 600 μm inner diameter and 0.2 μm pore size, was dipped into each of these pure liquids for 5 seconds. These liquids were contained in different wells of a 96 well plate. The fibers in the cover plate were then washed by sonication in water for 15 seconds to remove excess material sticking to the fibers. A five component mixture of acidic and basic drugs was prepared from acetaminophen, naproxen, bamethane, quinidine and doxepin. Concentrations of the stock drug solutions were 1.0 mg/mL in each case. […] This is to maintain roughly the same level of analytical signal with each of these drugs. The mixture was diluted to 20 mL with water so that the concentrations of the three dilute drugs is in the range of 1 μg/mL, while those of the more concentrated drugs is in the range of 5 μg/mL. 500 μL of this diluted mixture of drugs is further diluted eight fold (to 4 mL) with water containing 250 μL of 2.0 M sodium hydroxide and used for extraction. […] The acceptor solution consisted of 25 μL of 0.1 M hydrochloric acid in each case. Extraction time with vibration was 30 min for each membrane liquid. The enriched acceptor solution was diluted three fold in each case and 25 μL of the resulting diluted solution used for analysis by high performance liquid chromatography on a Omnisphere C18 column using acetonitrile/pH 7.0 dipotassium hydrogen phosphate as mobile phase. A gradient from 5% acetonitrile to 40% was used to elute the strongly retained components in a reasonable time frame.
# [6] = human plasma, same fashion as tramadol example, running buffer 75 mM phosphate pH 3.0 + triethylamine + hydroxypropyl-β-cyclodextrin
# [7] = human plasma 0.5 mL, hexyl ether, 0.1 M hydrochloric acid (17 μL) acceptor, 45 minutes, tramadol example
# [8] = hollow fibre Polypropylene, 280 μm ID, hexyl ether, 0.01 M hydrochloric acid acceptor
# [9] = hollow fibre Polypropylene, 600 μm ID, hexyl ether, 0.01 M hydrochloric acid acceptor
# [10] = hollow fibre Polysulfone, 500 μm ID, hexyl ether, 0.01 M hydrochloric acid acceptor
# [11] = human urine 2.0 mL, hexyl ether, 0.01 M hydrochloric acid acceptor, 45 minutes
# [12] = acceptor phase 10 mM CH3COOH, measured pH 3.3, water sample, 100 ng/mL
# [13] = acceptor phase 10 mM H2S04, measured pH 2.1, water sample, 100 ng/mL
# [14] = acceptor phase 10 mM H3PO4, measured pH 2.5, water sample, 100 ng/mL
# [15] = acceptor phase 10 mM HCOOH, measured pH 3.1, water sample, 100 ng/mL
# [16] = acceptor phase 10 mM HCl, measured pH 2.1, water sample, 100 ng/mL
# [17] = acceptor phase 10 mM HNO3, measured pH 1.9, water sample, 100 ng/mL
# [18] = acceptor phase 10 mM acetate, measured pH 4.8, water sample, 100 ng/mL
# [19] = acceptor phase 10 mM phosphate, measured pH 3.3, water sample, 100 ng/mL
# [20] = acceptor phase 100 mM CH3COOH, measured pH 2.7, water sample, 100 ng/mL
# [21] = acceptor phase 100 mM H2S04, measured pH 1.3, water sample, 100 ng/mL
# [22] = acceptor phase 100 mM H3PO4, measured pH 1.8, water sample, 100 ng/mL
# [23] = acceptor phase 100 mM HCOOH, measured pH 2.3, water sample, 100 ng/mL
# [24] = acceptor phase 100 mM HCl, measured pH 1.2, water sample, 100 ng/mL
# [25] = acceptor phase 100 mM phosphate, measured pH 3.0, water sample, 100 ng/mL
# [26] = 10 mM phosphate buffer acceptor pH 2.5, 60 minutes
# [27] = 10 mM phosphate buffer acceptor pH 3.5, 60 minutes
# [28] = 10 mM phosphate buffer acceptor pH 4.5, 60 minutes
# [29] = 10 mM phosphate buffer acceptor pH 5.5, 60 minutes
# [30] = 10 mM phosphate buffer acceptor pH 6.5, 60 minutes
# [31] = 10 mM phosphate buffer acceptor pH 7.5, 60 minutes
# [32] = acceptor phase 100 mM HNO3, measured pH 1.1, water sample, 100 ng/mL
# [33] = supported liquid membrane 1-octanol
# [34] = supported liquid membrane 2-octyl-1-dodecanol
# [35] = supported liquid membrane 4-nitrophenyl octyl ether
# [36] = supported liquid membrane Hexyl Ether
# [37] = human plasma 250 μL, hexyl ether membrane, 0.01 M hydrochloric acid acceptor, 30 minutes
# [38] = human whole blood 250 μL, hexyl ether membrane, 0.01 M hydrochloric acid acceptor, 30 minutes
# [39] = human urine or plasma 2.5 mL, 1-octanol membrane, 0.1M hydrochloric acid acceptor, 45 minutes
smiles,measurement,setting,value
"CN1CCN2c3ccccc3Cc3ccccc3C2C1 (stereo not drawn) [Mianserine, mianserine]",Enrichment,[1]; [6],15 fold
same,Extraction efficiency,[1]; [6],50%
"CNCCCC1(c2ccc(F)cc2)OCc2cc(C#N)ccc21 (stereo not drawn) [N-desmethyl metabolite, N-desmethylcitalopram]",Preconcentration,"[1]; patient plasma 1 mL, hexyl ether membrane, 20 mM phosphate buffer pH 2.75 acceptor, 45 minutes",30 fold
"COc1ccc2cc([C@H](C)C(=O)O)ccc2c1 [Naproxen, naproxen]",Enrichment,[1],82 fold
"COc1cccc(C2(O)CCCCC2CN(C)C)c1 (stereo not drawn) [Tramadol, tramadol]",Enrichment,[1]; [7],30 fold
same,Extraction efficiency,[1]; [7],100%
CC(N)Cc1ccccc1 (stereo not drawn) [amphetamine],Enrichment (average of 3 replicates),[2]; [8],104
same,Enrichment (average of 3 replicates),[2]; [9],82
same,Enrichment (average of 3 replicates),[2]; [10],22
same,Enrichment,[1]; [11],77
same,Extraction efficiency,[1]; [11],97%
same,Enrichment (average of 3 replicates),[3]; [12],66
same,Enrichment (average of 3 replicates),[3]; [13],104
same,Enrichment (average of 3 replicates),[3]; [14],72
same,Enrichment (average of 3 replicates),[3]; [15],72
same,Enrichment (average of 3 replicates),[3]; [16],82
same,Enrichment (average of 3 replicates),[3]; [17],48
same,Enrichment (average of 3 replicates),[3]; [18],90
same,Enrichment (average of 3 replicates),[3]; [19],123
same,Enrichment (average of 3 replicates),[3]; [20],48
same,Enrichment (average of 3 replicates),[3]; [21],98
same,Enrichment (average of 3 replicates),[3]; [22],58
same,Enrichment (average of 3 replicates),[3]; [23],5
same,Enrichment (average of 3 replicates),[3]; [24],74
same,Enrichment (average of 3 replicates),[3]; [25],128
same,Enrichment (average of 3 replicates),[4]; [26],107
same,Enrichment (average of 3 replicates),[4]; [27],102
same,Enrichment (average of 3 replicates),[4]; [28],104
same,Enrichment (average of 3 replicates),[4]; [29],93
same,Enrichment (average of 3 replicates),[4]; [30],88
same,Enrichment (average of 3 replicates),[4]; [31],64
CN1CCN(C(c2ccccc2)c2ccc(Cl)cc2)CC1 (stereo not drawn) [chlorcyclizine],Enrichment (average of 3 replicates),[2]; [8],106
same,Enrichment (average of 3 replicates),[2]; [9],126
same,Enrichment (average of 3 replicates),[2]; [10],110
same,Enrichment,"[1]; human plasma 2.0 mL, hexyl ether, 0.01 M hydrochloric acid acceptor, 45 minutes",52
same,Enrichment (average of 3 replicates),[3]; [12],32
same,Enrichment (average of 3 replicates),[3]; [13],122
same,Enrichment (average of 3 replicates),[3]; [14],118
same,Enrichment (average of 3 replicates),[3]; [15],72
same,Enrichment (average of 3 replicates),[3]; [16],126
same,Enrichment (average of 3 replicates),[3]; [17],120
same,Enrichment (average of 3 replicates),[3]; [18],3
same,Enrichment (average of 3 replicates),[3]; [19],83
same,Enrichment (average of 3 replicates),[3]; [20],66
same,Enrichment (average of 3 replicates),[3]; [21],136
same,Enrichment (average of 3 replicates),[3]; [22],80
same,Enrichment (average of 3 replicates),[3]; [23],93
same,Enrichment (average of 3 replicates),[3]; [24],138
same,Enrichment (average of 3 replicates),[3]; [32],136
same,Enrichment (average of 3 replicates),[3]; [25],93
same,Enrichment (average of 3 replicates),[4]; [26],123
same,Enrichment (average of 3 replicates),[4]; [27],32
same,Enrichment (average of 3 replicates),[4]; [28],5
CN1C(=O)CN=C(c2ccccc2)c2cc(Cl)ccc21 [diazepam],Enrichment (average of 3 replicates),[4]; pH 2.5,3
same,Enrichment (average of 3 replicates),[4]; pH 3.5,2
CN(C)CCC=C1c2ccccc2COc2ccccc21 [doxepin],Enrichment,[5]; [33],58
same,Enrichment,[5]; [34],147
same,Enrichment,[5]; [35],227
same,Enrichment,[5]; [36],202
O=C(CCCN1CCC(O)(c2ccc(Cl)cc2)CC1)c1ccc(F)cc1 [haloperidol],Enrichment (average of 3 replicates),[2],131
CCC(=O)C(CC(C)N(C)C)(c1ccccc1)c1ccccc1 (stereo not drawn) [methadone],Enrichment (average of 3 replicates),[2]; [8],138
same,Enrichment (average of 3 replicates),[2]; [9],138
same,Enrichment (average of 3 replicates),[2]; [10],139
same,Enrichment,[1]; [37],6.4
same,Enrichment,[1]; [38],5.4
same,Enrichment (average of 3 replicates),[3]; [12],86
same,Enrichment (average of 3 replicates),[3]; [13],157
same,Enrichment (average of 3 replicates),[3]; [14],96
same,Enrichment (average of 3 replicates),[3]; [15],114
same,Enrichment (average of 3 replicates),[3]; [16],138
same,Enrichment (average of 3 replicates),[3]; [17],141
same,Enrichment (average of 3 replicates),[3]; [18],42
same,Enrichment (average of 3 replicates),[3]; [19],134
same,Enrichment (average of 3 replicates),[3]; [20],84
same,Enrichment (average of 3 replicates),[3]; [21],150
same,Enrichment (average of 3 replicates),[3]; [22],77
same,Enrichment (average of 3 replicates),[3]; [23],91
same,Enrichment (average of 3 replicates),[3]; [24],134
same,Enrichment (average of 3 replicates),[3]; [32],107
same,Enrichment (average of 3 replicates),"[3]; acceptor phase 100 mM acetate, measured pH 4.8, water sample, 100 ng/mL",42
same,Enrichment (average of 3 replicates),[3]; [25],117
CN[C@@H](C)Cc1ccccc1 [methamphetamine],Enrichment (average of 3 replicates),[2]; [8],123
same,Enrichment (average of 3 replicates),[2]; [9],122
same,Enrichment (average of 3 replicates),[2]; [10],46
same,Enriched to the extent of,"[2]; polypropylene fiber, 600 μm inner diameter, hexyl ether, 0.01 M hydrochloric acid",82%
same,Recovered/enriched to the extent of,"[2]; polysulfone fiber, 500 μm inner diameter, hexyl ether, 0.01 M hydrochloric acid",22%
same,Enrichment,[1]; [37],8.1
same,Extraction efficiency,[1]; [37],81%
same,Enrichment,[1]; [39],75 fold
same,Extraction efficiency,[1]; [39],75%
same,Enrichment,"[1]; human whole blood 2.5 mL, 280 μm ID polypropylene fiber, hexyl ether, 17 μL 0.1 M hydrochloric acid acceptor, 30 minutes",one hundred
same,Enrichment,[1]; [38],7.8
same,Extraction efficiency,[1]; [38],78%
same,Enrichment (average of 3 replicates),[3]; [12],93
same,Enrichment (average of 3 replicates),[3]; [13],141
same,Enrichment (average of 3 replicates),[3]; [14],96
same,Enrichment (average of 3 replicates),[3]; [15],106
same,Enrichment (average of 3 replicates),[3]; [16],122
same,Enrichment (average of 3 replicates),[3]; [17],125
same,Enrichment (average of 3 replicates),[3]; [18],128
same,Enrichment (average of 3 replicates),[3]; [19],136
same,Enrichment (average of 3 replicates),[3]; [20],77
same,Enrichment (average of 3 replicates),[3]; [21],134
same,Enrichment (average of 3 replicates),[3]; [22],83
same,Enrichment (average of 3 replicates),[3]; [23],13
same,Enrichment (average of 3 replicates),[3]; [24],120
same,Enrichment (average of 3 replicates),[3]; [25],133
same,Enrichment (average of 3 replicates),[4]; [26],150
same,Enrichment (average of 3 replicates),[4]; [27],146
same,Enrichment (average of 3 replicates),[4]; [28],150
same,Enrichment (average of 3 replicates),[4]; [29],134
same,Enrichment (average of 3 replicates),[4]; [30],122
same,Enrichment (average of 3 replicates),[4]; [31],88
COc1ccc2c(c1OC)C(=O)O[C@@H]2[C@H]1c2c(cc3c(c2OC)OCO3)CCN1C [noscapin],Enrichment (average of 3 replicates),[4]; [26],8
same,Enrichment (average of 3 replicates),[4]; [27],2
CCOC(=O)C1(c2ccccc2)CCN(C)CC1 [pethidine],Enrichment (average of 3 replicates),[2],125 and 128 and 122
same,Enrichment,[1],74%/7.4 and 72%/7.2
same,Extraction efficiency,[1],74%/7.4 and 72%/7.2
same,Enrichment (average of 3 replicates),[3]; pH 1.1,64
same,Enrichment (average of 3 replicates),[3]; pH 1.2,139
same,Enrichment (average of 3 replicates),[3]; pH 1.3,141
same,Enrichment (average of 3 replicates),[3]; pH 1.8,90
same,Enrichment (average of 3 replicates),[3]; pH 1.9,106
same,Enrichment (average of 3 replicates),[3]; pH 2.1,128 and 144
same,Enrichment (average of 3 replicates),[3]; pH 2.3,106
same,Enrichment (average of 3 replicates),[3]; pH 2.5,98
same,Enrichment (average of 3 replicates),[3]; pH 2.7,90
same,Enrichment (average of 3 replicates),[3]; pH 3,131
same,Enrichment (average of 3 replicates),[3]; pH 3.1,115
same,Enrichment (average of 3 replicates),[3]; pH 3.3,96 and 139
same,Enrichment (average of 3 replicates),[3]; pH 4.8,106 and 91
same,Enrichment (average of 3 replicates),[4]; pH 2.5,160
same,Enrichment (average of 3 replicates),[4]; pH 3.5,147
same,Enrichment (average of 3 replicates),[4]; pH 4.5,131
same,Enrichment (average of 3 replicates),[4]; pH 5.5,90
same,Enrichment (average of 3 replicates),[4]; pH 6.5,34
same,Enrichment (average of 3 replicates),[4]; pH 7.5,6
CC(CN1c2ccccc2Sc2ccccc21)N(C)C (stereo not drawn) [promethazine],Enrichment,[1]; [37],5.5
same,Extraction efficiency,[1]; [37],55%
same,Enrichment,[1]; [38],4.3
same,Extraction efficiency,[1]; [38],43%
C=C[C@H]1C[N@@]2CC[C@H]1C[C@@H]2[C@@H](O)c1ccnc2ccc(OC)cc12 [quinidine],Enrichment,[5]; [33],100
same,Enrichment,[5]; [34],20
same,Enrichment,[5]; [35],52
same,Enrichment,[5]; [36],100
COC(=O)[C@H]1[C@H]2C[C@@H]3c4[nH]c5cc(OC)ccc5c4CCN3C[C@H]2C[C@@H](OC(=O)c2cc(OC)c(OC)c(OC)c2)[C@@H]1OC [reserpin],Enrichment (average of 3 replicates),[4]; [26],18
same,Enrichment (average of 3 replicates),[4]; [27],2
